Laboratory results taken from patent publication US20240246902A1, “PRODRUGS OF 6-DIAZO-5-OXO-L-NORLEUCINE” (THE JOHNS HOPKINS UNIVERSITY, priority 2021, published 2024).
≈ marks a conversion by molar mass, not a printed value. Like-named read-outs stand apart in the source and are kept apart here.

Key:
[1] = Plasma stability, rat plasma; assay type: in vitro ADME; settings: RP = Rat Plasma
[2] = Metabolic stability in swine liver tissue homogenate; assay type: in vitro ADME; settings: prodrug 20 μM, 37° C.
Outline: (§1)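 Freshly collected swine jejunum or liver was sonicated in 9 volumes of 0.1 M potassium phosphate buffer on ice. Prodrugs at 20 μM (0.2% DMSO, triplicate) were incubated at 37° C for 0, 30 and 60 min. Samples were quenched in methanol with losartan internal standard, and prodrug disappearance was followed by LC-MS/MS using analyte/IS peak area ratios.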

[3] = Plasma stability, pig plasma; assay type: in vitro ADME; settings: PP = Pig Plasma
[4] = Metabolic stability in swine jejunum (gut) tissue homogenate; assay type: in vitro ADME; settings: prodrug 20 μM, 37° C.
Outline: as §1

[5] = Plasma stability, plasma from CES1KO mice; settings: CES1KO = Mouse Plasma from CES1KO mice
P493B lymphoma cells = assay: Human tumor cell-to-plasma partitioning assay (DON release in P493B cells); settings: 10 million cells/mL, prodrug 20 μM, 37° C., 1 h
Experimental: The human plasma-to-tumor cell partitioning assays were conducted using P493B lymphoma following our previously reported method. […] In brief, cells were cultured in 150 cm^2 T-flasks (Falcon™, USA, Cat. #08-772-48) with RPMI Medium 1640 medium 1× containing L-glutamine (RPMI-1640, Corning®, USA, Cat. #10-040-CV), supplemented with 10% v/v Fetal Bovine Serum (FBS, Gibco™, USA, Cat. #26140079), and 1% v/v antimycotic/antibiotic (Gibco™, USA, Cat. #15240062). Cells were grown at 37° C., in a humidified atmosphere with 5% CO2. Cells were harvested after achieving>80% confluency and centrifuged at 200×g for 5 min at 25° C. The obtained cell pellet was re-suspended in 20 mL of Dulbecco's phosphate-buffered saline (DPBS, Gibco™, USA, Cat. #14-190-144) maintained at 37° C. and cell count was determined using an automated cell counter (Bio-Rad, USA). […] Both plasma and cell pellet fractions were analyzed for intact prodrug and DON levels.
Frozen plasma and cell pellets were thawed on wet ice. […] After centrifugation, 100 μL of the supernatant was diluted with 400 μL of water, and analyzed in LC-MS/MS. […]
The underivatized supernatants/derivatized samples were analyzed on a LC-MS/MS system consisting of Dionex ultra high-performance LC system hyphenated with Q Exactive Focus Orbitrap mass spectrometer (Thermo Fisher Scientific Inc., Waltham, MA). […]

[6] = not told
[7] = mouse, 1 h

| Plasma Stability (% remaining at 60 min) [1] | Liver stability (% remaining at 60 min) [2] | Plasma Stability (% remaining at 60 min) [3] | Gut Stability (% remaining at 60 min) [4] | Plasma Stability (% remaining at 60 min) [5] | Efflux (Efflux) | P493B cells (DON release; nmol/g) (P493B lymphoma cells) | Compound | Efflux [6] | Plasma Stability (% remaining at 60 min) [7] | solubility (physchem) |
| --- | --- | --- | --- | --- | --- | --- | --- | --- | --- | --- |
| 0 ± 0 (RP) % | 23 ± 0% | 105 ± 1 (PP) % | 76 ± 0% | 89 ± 2 (ces1KO) % | – | – | CC(=O)N[C@@H](CCC(=O)C=[N+]=[N-])C(=O)OC(C)C [Compound 5a, Isopropyl (S)-2-acetamido-6-diazo-5-oxohexanoate] | – | – | – |
| – | 93 ± 1% | – | 100 ± 1% | – | 2 | Undetectable | CN(C)CC(=O)N[C@@H](CCC(=O)C=[N+]=[N-])C(=O)OC(C)(C)C [Compound 5h, tert-Butyl (S)-6-diazo-2-(2-(dimethylamino)acetamido)-5-oxohexanoate] | – | – | – |
| – | – | – | – | – | – | – | Cn1cc(C[C@H](NC(=O)C23CCN(CC2)CC3)C(=O)N[C@@H](CCC(=O)C=[N+]=[N-])C(=O)OC(C)(C)C)c2ccccc21 [Compound 12b, tert-Butyl (S)-6-diazo-2-((S)-3-(1-methyl-1H-indol-3-yl)-2-(quinuclidine-4-carboxamido)propanamido)-5-oxohexanoate] | 3.48 | 92 ± 1 (MP) % | 8800 µg/mL (≈ 15.6 mM) |
